Data: ChEMBL document CHEMBL1149020, “Sesterterpenes from a common marine sponge, Hyrtios erecta” (1986)

Organism: Mus musculus
Assay: Antiinflammatory activity against PMA-induced ear inflammation in mouse assessed as decrease in ear weight at 50 ug/ear
Assay type: functional
Parameters: scale not given: the % may be the effect or the level left

Compound: CC(=O)O[C@@H]1C[C@H]2[C@@](C)(CC[C@H]3C(C)(C)CCC[C@]23C)[C@@H]2CC=C(C=O)C[C@]21C [HYRTIAL]
- Activity: 43%
